According to patent US7468394B1, “Sterile pharmaceutical composition and process for a solution of propofol emulsion having microbial growth retardation” (priority 2003, dated 2008):

Source text: Propofol has limited water solubility, however it is easy to dissolve in soybean oil. As such, it must be incorporated with a solubilizing agent, surfactants or solvents to generate oil-in-water emulsions. The oil component of the emulsion is contained within a shell of the surfactants (egg lecithin), thus forming a “sunflower” structure, which can be seen in Table 1. Currently marketed propofol products are available as oil-in-water emulsions.

## CC(C)c1cccc(C(C)C)c1O [propofol, 2,6-Diisopropylphenol]
  partition coefficient of propofol between soybean oil and water: 4,220
